According to US6387880B1, “Transdermal N-[N-[5-[4-(aminoiminomethly)phenyl]-1-oxopentyl]-L-α-aspartyl]-L-phenylalainine or its esters and their pharmaceutically acceptable salts” (G.D. Searle & Co., priority 1996, dated 2002):
Several values for one entry are separate records, joined by “and”; a condition that tells them apart may be missing. Identical values can stand only once.

Test: Transdermal shaved rat model: radiolabelled compound in gel patch, amount recovered in urine and feces
Conditions: for Mg transported in Feces 24 Hrs / Mg transported in Feces 48 Hrs / Mg transported in Feces 72 Hrs / Mg transported in Urine 24 Hrs / Mg transported in Urine 48 Hrs / Mg transported in Urine 72 Hrs / Mg transported Total (feces + urine) / Mg transported Total, Mean: diethyl ester section, transdermal patch; for Mg transported in Feces 24 Hrs / Mg transported in Feces 48 Hrs / Mg transported in Feces 72 Hrs / Mg transported in Urine 24 Hrs / Mg transported in Urine 48 Hrs / Mg transported in Urine 72 Hrs / Mg transported Total (feces + urine): individual rats; for Mg transported Total (feces + urine): 72 Hrs; for Mg transported Total, Mean: mean of 4 rats
Excerpt: Rats were anesthetized with N2O/O2 and [sequence] fluorocarbon anesthesia using a metering device (Quantifier VMC Anesthesia Machine, Matrix Media Inc.) The rat's back was carefully shaved using an electric razor the day before the transdermal experiment, and no abrasions in the skin surface were apparent.
Compound was applied to the skin using a Hilltop Chambers® transdermal delivery plastic device, in which the compound was contained in a 3% hydroxypropyl cellulose gel. The device was glued in place using cyanomethacrylate (Superbinder 495, Newark Electronics).
The aqueous formulation was 2% in N-[N-[5-[4-(aminoiminomethyl)phenyl]-1-oxopentyl]-L-α-aspartyl]-L-phenylalanine, monohydrochloride (10 mg N-[N-[5-[4-(aminoiminomethyl)phenyl]-1-oxopentyl]-L-α-aspartyl]-L-phenylalanine, monohydrochloride 0.5 ml gel/2.5 cm^2 patch). N(N-[5-[4-(aminoiminomethyl)-phenyl]-1-oxopentyl]-L-α-aspartyl]-L-phenylalanine, monohydrochloride was neutralized to pH 7.4 with KOH and buffered with 5 mM HEPES N-[2-hydroxyethyl] piperazine-N′-[2-ethanesulfonic acid]in 90% water, 10% propylene glycol. The N-methyl pyrrolidone formulation was made by dissolving 100 mg [^3H] N-[N-[5-[4-(aminoiminomethyl)phenyl]-1-oxopentyl]-L-α-aspartyl]-L-phenylalanine, monohydrochloride [15 microcuries] in 400 microliters N-methyl pyrrolidone. The 0.5 ml solution was made into a gel by adding 15 mg hydroxypropyl cellulose and incubating at ambient temperatures for 16 hours. Thirty microcuries [^3H] N-[N-[5-[4-(aminoiminomethyl)phenyl]-1-oxopentyl]-L-α-aspartyl]-L-phenylalanine, monohydrochloride (specific activity: 928 mCurie/mmol) was added as a tracer. The amount of compound in a sample was calculated from the number of counts detected and the specific radioactivity of the compound in the patch.
Urine and feces were collected daily after patch application as indicated in the Table I. Counts were combined to achieve the total amount delivered. Urine was counted directly by scintillography (Hionic Fluid, Packard Co., Mark Ill.), while feces, were processed by mechanical mixing in saline followed by oxidization of a dried aliquot to tritiated water in an oxidizer (Oxidizer Machine, Packard).

average amount delivered (2.5 cm^2 patch, rat): 4.6 ± 1.9 mg
Mg transported in Feces 24 Hrs (Ethanol): 0.05 Mg and 0.01 Mg (2×) and 0.04 Mg
Mg transported in Urine 24 Hrs (Ethanol): 0.02 Mg and 0.01 Mg and 0.00 Mg (2×)
Mg transported in Urine 72 Hrs (Ethanol): 0.42 Mg and 0.19 Mg and 0.11 Mg (2×)
Mg transported Total, Mean (Ethanol): 4.62 Mg
Mg transported in Feces 24 Hrs (Saline): 0.48 Mg and 0.67 Mg and 0.02 Mg (2×)
Mg transported in Urine 24 Hrs (Saline): 0.19 Mg and 0.17 Mg and 0.00 Mg (2×)
Mg transported Total, Mean (Saline): 3.99 Mg
Structure (SMILES): CCOC(=O)C[C@H](NC(=O)CCCCc1ccc(C(=N)N)cc1)C(=O)N[C@@H](Cc1ccccc1)C(=O)OCC [N-[N-[5-[4-(aminoiminomethyl)phenyl]-1-oxopentyl]-L-α-aspartyl]-L-phenylalanine, diethyl ester]
Mg transported in Feces 48 Hrs (Ethanol): 3.16 Mg and 2.44 Mg and 4.09 Mg and 1.20 Mg
Mg transported in Feces 72 Hrs (Ethanol): 1.51 Mg and 2.33 Mg and 1.67 Mg and 0.43 Mg
Mg transported in Urine 48 Hrs (Ethanol): 0.27 Mg and 0.12 Mg and 0.16 Mg and 0.13 Mg
Mg transported Total (feces + urine) (Ethanol): 5.43 Mg and 5.10 Mg and 6.07 Mg and 1.88 Mg
Mg transported in Feces 48 Hrs (Saline): 4.59 Mg and 3.88 Mg and 0.61 Mg and 1.21 Mg
Mg transported in Feces 72 Hrs (Saline): 0.84 Mg and 1.17 Mg and 0.49 Mg and 0.67 Mg
Mg transported in Urine 48 Hrs (Saline): 0.20 Mg and 0.16 Mg and 0.15 Mg and 0.13 Mg
Mg transported in Urine 72 Hrs (Saline): 0.09 Mg and 0.11 Mg and 0.05 Mg and 0.10 Mg
Mg transported Total (feces + urine) (Saline): 6.39 Mg and 6.16 Mg and 1.32 Mg and 2.09 Mg
